{"source": "patent US20220000919A1", "about": "“PLACENTAL DERIVED NATURAL KILLER CELLS FOR TREATMENT OF CORONAVIRUS INFECTIONS” (Celularity Inc., priority 2020, published 2022)", "key": {"CD34+ cells": {"tested_on": "CD34+ cells", "assay": "NK culture of CD34+ cells with CRL compounds: cell expansion and NK differentiation", "format": "cell-based, human", "details": "for supported NK (PNK-007) expansion and differentiation: compound at 10 μM during the first 14 days of culture; for CD56+/CD11a+ subpopulation compared to SRI / expansion, differentiation and cytotoxicity profiles compared to SRI: PNK-007 culture, 10 μM; for cell expansion compared to SRI positive control at Day 35: compound and SRI at 10 μM; for CD34 cell expansion at Day 14 of the culture: compound at 10 μM", "method": "Stage 1 medium: 90% Stem Cell Growth Medium (SCGM) (CellGro®), 10% Human Serum-AB, supplemented with 25 ng/mL or 250 ng/mL recombinant human thrombopoietin (TPO), 25 ng/mL recombinant human Flt3L, 27 ng/mL recombinant human stem cell factor (SCF), 25 ng/mL recombinant human IL-7, 0.05 ng/mL or 0.025 ng/mL recombinant human IL-6, 0.25 ng/mL or 0.125 ng/mL recombinant human granulocyte colony-stimulating factor (G-CSF), 0.01 ng/mL or 0.025 ng/mL recombinant human granulocyte-macrophage colony-stimulating factor (GM-CSF), 0.10% gentamicin, and 1 to 10 μm StemRegenin-1 (SR-1) or other stem cell mobilizing agent.\nStage 2 medium: 90% SCGM, 10% Human Serum-AB, supplemented with 25 ng/mL recombinant human Flt3L, 27 ng/mL recombinant human SCF, 25 ng/mL recombinant human IL-7, 20 ng/mL recombinant human IL-15, 0.05 ng/mL or 0.025 ng/mL recombinant human IL-6, 0.25 ng/mL or 0.125 ng/mL recombinant human granulocyte colony-stimulating factor (G-CSF), 0.01 ng/mL or 0.025 ng/mL recombinant human granulocyte-macrophage colony-stimulating factor (GM-CSF), 0.10% gentamicin, and 1 to 10 μm SRI or other stem cell mobilizing agent.\nStage 3 medium: 90% STEMMACS™, 10% Human Serum-AB, 0.025 mM 2-mercaptoethanol (55 mM), supplemented with 22 ng/mL recombinant human SCF, 1000 U/mL recombinant human IL-2, 20 ng/mL recombinant human IL-7, 20 ng/mL recombinant human IL-15, 0.05 ng/mL or 0.025 ng/mL recombinant human IL-6, 0.25 ng/mL or 0.125 ng/mL recombinant human granulocyte colony-stimulating factor (G-CSF), 0.01 ng/mL or 0.025 ng/mL recombinant human granulocyte-macrophage colony-stimulating factor (GM-CSF), and 0.10% gentamicin.\nCells are seeded at Day 0 at 3×10^4 cells/mL in Stage 1 media, and cells are tested for purity by a CD34+ and CD45+ count and viability by 7AAD staining. At Day 5 cells are counted and seeded to a concentration of 1×10^5 cells/mL with Stage 1 medium. At Day 7 cells are counted and seeded to a concentration of 1×10^5 cells/mL with Stage 1 medium.\nAt Day 10, cells are counted and seeded to a concentration of 1×10^5 cells/mL in Stage 2 medium. At Day 12, cells are counted and seeded to a concentration of 3×10^5 cells/mL in Stage 2 medium. At Day 14, cells are counted and seeded in Stage 3 medium. Cells are maintained in Stage 3 media until day 35.\nUCB CD34+ cells were cultivated in presence of cytokines including thrombopoietin, SCF, Flt3 ligand, IL-7, IL-15 and IL-2 for 35 days to produce three-stage NK cells, as described in Example 1. Multi-color flow cytometry was used to determine the phenotypic characteristics of three-stage NK cells.\n(§1) For biological testing, the compounds were provided to culture to evaluate their effects on NK cell expansion and differentiation. Specifically, donors of CD34+ cells (StemCell Technology) were thawed and expanded in vitro following NK culture protocol. During the first 14 days of the culture, each CRL compounds was dissolved in DMSO and added to the culture at 10 μM concentration. SRI (at 10 μM) served as a positive control compound, while DMSO alone without any compound served as a negative control. At the end of the culture on Day 35, cell expansion, natural killer (NK) cell differentiation and cytotoxicity of the cells against K562 tumor cell line were characterized. Due to the large number of the compounds, the testing was performed in two experiments, CRL1-11 and CRL 12-22. The same donors were used for each experiment. Positive and negative controls were also included in both experiments."}, "K562 tumor cells": {"tested_on": "K562 tumor cells", "assay": "Cytotoxicity assay of compound cultured cells against K562 tumor cells", "format": "cell-based", "details": "K562, 10:1 effector to target ratio", "method": "as §1\nCytotoxicity assay was run using compound cultured cells against K562 tumor cells at 10:1 effector to target ratio (FIG. 5) to evaluate cell functions."}}, "data": [{"smiles": "CCC(C)Nc1cc(-c2cncc(C#N)c2)nc(NCCc2c[nH]c3ccccc23)n1", "note": "(centres unmarked) [CRL7, 5-(2-((2-(1H-indol-3-yl)ethyl)amino)-6-(sec-butylamino)pyrimidin-4-yl)nicotinonitrile]", "values": [{"measurement": "supported NK (PNK-007) expansion and differentiation", "setting": "CD34+ cells", "result": "all the compounds except CRL7 and CRL13 supported PNK-007 expansion and differentiation"}]}, {"smiles": "CCC(C)Nc1nc(NCCc2c[nH]c3ccccc23)c2ccccc2n1", "note": "(centres unmarked) [CRL13, N^4-(2-(1H-indol-3-yl)ethyl)-N^2-(sec-butyl)quinazoline-1,4-diamine]", "values": [{"measurement": "supported NK (PNK-007) expansion and differentiation", "setting": "CD34+ cells", "result": "all the compounds except CRL7 and CRL13 supported PNK-007 expansion and differentiation"}]}, {"smiles": "CC(C)c1csc2c(NCCc3c[nH]c4ccccc34)nc(-c3cncc(C#N)c3)nc12", "note": "[CRL17, 5-(4-((2-(1H-indol-3-yl)ethyl)amino)-7-isopropylthieno[3,2-d]pyrimidin-2-yl)nicotinonitrile]", "values": [{"measurement": "killing activities of cultured cells compared to those cultured with SRI", "setting": "K562 tumor cells", "result": "increased killing activities of the cells"}, {"measurement": "CD56+/CD11a+ subpopulation compared to SRI", "setting": "CD34+ cells", "result": "increased CD56+/CD11a+ subpopulation"}, {"measurement": "cell expansion compared to SRI positive control at Day 35", "setting": "CD34+ cells", "result": "slightly less expansion compared to SRI"}]}, {"smiles": "CC(C)c1csc2c(NCCc3c[nH]c4ccccc34)nc(-c3cncc(F)c3)nc12", "note": "[CRL18, N-(2-(1H-indol-3-yl)ethyl)-2-(5-fluoropyridin-3-yl)-7-isopropylthieno[3,2-d]pyrimidin-4-amine]", "values": [{"measurement": "killing activities of cultured cells compared to those cultured with SRI", "setting": "K562 tumor cells", "result": "increased killing activities of the cells"}, {"measurement": "CD56+/CD11a+ subpopulation compared to SRI", "setting": "CD34+ cells", "result": "increased CD56+/CD11a+ subpopulation"}, {"measurement": "cell expansion compared to SRI positive control at Day 35", "setting": "CD34+ cells", "result": "slightly less expansion compared to SRI"}]}, {"smiles": "Fc1cncc(-c2nc(NCCc3c[nH]c4ccccc34)c3occc3n2)c1", "note": "[CRL19, N-(2-(1H-indol-3-yl)ethyl)-2-(5-fluoropyridin-3-yl)furo[3,2-d]pyrimidin-4-amine]", "values": [{"measurement": "expansion, differentiation and cytotoxicity profiles compared to SRI", "setting": "CD34+ cells", "result": "very similar expansion, differentiation and cytotoxicity profiles as SRI"}, {"measurement": "CD34 cell expansion at Day 14 of the culture", "setting": "CD34+ cells", "result": "highest CD34 cell expansion"}]}, {"smiles": "Cc1cncc(-c2nc(NCCc3c[nH]c4ccccc34)c3occc3n2)c1", "note": "[CRL20, N-(2-(1H-indol-3-yl)ethyl)-2-(5-methylpyridin-3-yl)furo[3,2d]pyrimidin-4-amine]", "values": [{"measurement": "expansion, differentiation and cytotoxicity profiles compared to SRI", "setting": "CD34+ cells", "result": "very similar expansion, differentiation and cytotoxicity profiles as SRI"}, {"measurement": "CD34 cell expansion at Day 14 of the culture", "setting": "CD34+ cells", "result": "highest CD34 cell expansion"}]}, {"smiles": "Cc1cncc(-c2nc(NCCc3c[nH]c4ccccc34)c3scc(C(C)C)c3n2)c1", "note": "[CRL21, N-(2-(1H-indol-3-yl)ethyl)-7-isopropyl-2-(5-methylpyridin-3-yl)thieno[3,2-d]pyrimidin-4-amine]", "values": [{"measurement": "killing activities of cultured cells compared to those cultured with SRI", "setting": "K562 tumor cells", "result": "increased killing activities of the cells"}, {"measurement": "CD56+/CD11a+ subpopulation compared to SRI", "setting": "CD34+ cells", "result": "increased CD56+/CD11a+ subpopulation"}, {"measurement": "cell expansion compared to SRI positive control at Day 35", "setting": "CD34+ cells", "result": "slightly less expansion compared to SRI"}]}, {"smiles": "N#Cc1cncc(-c2nc(NCCc3c[nH]c4ccccc34)c3occc3n2)c1", "note": "[CRL22, 5-(4-((2-(1H-indol-3-yl)ethyl)amino)furo[3,2-d]pyrimidin-2-yl)nicotinonitrile]", "values": [{"measurement": "expansion, differentiation and cytotoxicity profiles compared to SRI", "setting": "CD34+ cells", "result": "very similar expansion, differentiation and cytotoxicity profiles as SRI"}, {"measurement": "CD34 cell expansion at Day 14 of the culture", "setting": "CD34+ cells", "result": "highest CD34 cell expansion"}]}]}
